From patent publication US10800792B2, “Inhibitors of Bruton's tyrosine kinase and method of their use” (JANSSEN PHARMACEUTICA NV, priority 2015, dated 2020)

Target: unphosphorylated-BTK kinase domain (UP-BTK), GST-tagged human BTK (389-659aa) (Homo sapiens (Human), UniProt Q06187)
Test: BTK kinase Lanthascreen binding assay
Conditions: pIC50 = negative log of the IC50 in molar; for IC50: read-out: BTK_I_binding pIC50 (converted)
Method in brief: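 Lanthascreen competition binding; test compound vs fluorescent tracer on unphosphorylated BTK. Output: pIC50 (−log IC50, M).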

[1] = unphosphorylated-BTK kinase domain, 50 nM Tracer 236, 60 minutes
[2] = Lanthascreen tracer competition, 60 minutes incubation

Chain of unphosphorylated-BTK kinase domain (UP-BTK), GST-tagged human BTK (389-659aa) (Q06187 389-659): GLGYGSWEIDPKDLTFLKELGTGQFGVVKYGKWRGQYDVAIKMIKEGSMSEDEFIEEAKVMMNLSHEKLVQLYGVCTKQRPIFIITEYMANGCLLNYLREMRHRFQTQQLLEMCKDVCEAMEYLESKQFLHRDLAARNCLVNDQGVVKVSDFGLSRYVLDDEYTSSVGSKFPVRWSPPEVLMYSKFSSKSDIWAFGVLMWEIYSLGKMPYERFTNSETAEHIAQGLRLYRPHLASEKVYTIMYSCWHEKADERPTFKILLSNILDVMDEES

| Compound | BTK_I_binding pIC50 [1] | BTK_I_binding pIC50 [2] | other results |
| --- | --- | --- | --- |
| COC[C@@H](C)C(=O)N1CCC[C@@H](NC(=O)c2sc3nccc4c3c2NC(=O)N4c2ccc(Oc3ccccc3)cc2C)C1 [Example 571, N—((R)-1-((R)-3-Methoxy-2-methylpropanoyl)piperidin-3-yl)-5-(2-methyl-4-phenoxyphenyl)-4-oxo-4,5-dihydro-3H-1-thia-3,5,8-triazaacenaphthylene-2-carboxamide] | 7.0 | – | – |
| CN(C)CC(=O)N1CCC[C@@H](NC(=O)c2sc3nccc4c3c2NC(=O)N4c2ccc(Oc3ccccc3)c(Cl)c2)C1 [Example 572, (R)-5-(3-Chloro-4-phenoxyphenyl)-N-(1-(2-(dimethylamino)acetyl)piperidin-3-yl)-4-oxo-4,5-dihydro-3H-1-thia-3,5,8-triazaacenaphthylene-2-carboxamide] | 7.1 | – | – |
| CN(C)C/C=C/C(=O)N1CCC[C@@H](NC(=O)c2sc3nccc4c3c2NC(=O)N4c2cccc(-c3ccccc3)c2)C1 [Example 573, (R,E)-5-([1,1′-Biphenyl]-3-yl)-N-(1-(4-(dimethylamino)but-2-enoyl)piperidin-3-yl)-4-oxo-4,5-dihydro-3H-1-thia-3,5,8-triazaacenaphthylene-2-carboxamide] | 6.6 | – | – |
| C=CC(=O)N1CC[C@@H](NC(=O)c2sc3nccc4c3c2NC(=O)N4c2ccc(Oc3ccccc3)cc2)[C@@H](O)C1 [Example 574] | – | – | IC50 [1]: 158 nM |
| CNCC(=O)N1CCC[C@@H](NC(=O)c2sc3nccc4c3c2NC(=O)N4c2ccc(Oc3ccccc3)c(Cl)c2)C1 [Example 575, (R)-5-(3-Chloro-4-phenoxyphenyl)-N-(1-(2-(methylamino)acetyl)piperidin-3-yl)-4-oxo-4,5-dihydro-3H-1-thia-3,5,8-triazaacenaphthylene-2-carboxamide] | 7.3 | – | – |
| COCC(=O)N1CCC[C@@H](NC(=O)c2sc3nccc4c3c2NC(=O)N4c2ccc(Oc3ccccc3)cc2)C1 [Example 576, (R)—N-(1-(2-Methoxyacetyl)piperidin-3-yl)-4-oxo-5-(4-phenoxyphenyl)-4,5-dihydro-3H-1-thia-3,5,8-triazaacenaphthylene-2-carboxamide] | 7.3 | – | – |
| O=C(N[C@@H]1CCNC1)c1sc2nccc3c2c1NC(=O)N3c1ccc(Oc2ccccc2)c(Cl)c1 [Example 577, (R)-5-(3-Chloro-4-phenoxyphenyl)-4-oxo-N-(pyrrolidin-3-yl)-4,5-dihydro-3H-1-thia-3,5,8-triazaacenaphthylene-2-carboxamide] | 7.2 | – | – |
| O=C1CCC(NC(=O)c2sc3nccc4c3c2NC(=O)N4c2ccc(Oc3ccccc3)cc2)CN1 (stereo not shown) [Example 578, 4-Oxo-N-(6-oxopiperidin-3-yl)-5-(4-phenoxyphenyl)-4,5-dihydro-3H-1-thia-3,5,8-triazaacenaphthylene-2-carboxamide] | 6.9 | – | – |
| O=C(N[C@H]1CNC[C@@H]1F)c1sc2nccc3c2c1NC(=O)N3c1ccc(Oc2ccccc2)cc1 [Example 579, N-((3S,4S)-4-Fluoropyrrolidin-3-yl)-4-oxo-5-(4-phenoxyphenyl)-4,5-dihydro-3H-1-thia-3,5,8-triazaacenaphthylene-2-carboxamide] | 6.9 | – | – |
| Cc1ccc(-c2cccc(N3C(=O)Nc4c(C(=O)N[C@@H]5CCCNC5)sc5nccc3c45)c2)cc1 [Example 580, (R)-5-(4′-Methyl-[1,1′-biphenyl]-3-yl)-4-oxo-N-(piperidin-3-yl)-4,5-dihydro-3H-1-thia-3,5,8-triazaacenaphthylene-2-carboxamide] | 6.9 | – | – |
| O=C(N[C@@H]1CCCNC1)c1sc2nccc3c2c1NC(=O)N3c1ccc(Oc2ccccc2)c(Cl)c1 [Example 581, (R)-5-(3-Chloro-4-phenoxyphenyl)-4-oxo-N-(piperidin-3-yl)-4,5-dihydro-3H-1-thia-3,5,8-triazaacenaphthylene-2-carboxamide] | 6.8 | – | – |
| CC(=O)N1CCC[C@@H](NC(=O)c2sc3nccc4c3c2NC(=O)N4c2ccc(Oc3ccccc3)c(Cl)c2)C1 [Example 582, (R)—N-(1-Acetylpiperidin-3-yl)-5-(3-chloro-4-phenoxyphenyl)-4-oxo-4,5-dihydro-3H-1-thia-3,5,8-triazaacenaphthylene-2-carboxamide] | 6.7 | – | – |
| Cc1cc(N2C(=O)Nc3c(C(=O)N[C@@H]4CCCNC4)sc4nccc2c34)ccc1Oc1ccccc1 [Example 583, (R)-5-(3-Methyl-4-phenoxyphenyl)-4-oxo-N-(piperidin-3-yl)-4,5-dihydro-3H-1-thia-3,5,8-triazaacenaphthylene-2-carboxamide] | 6.7 | – | – |
| C=CC(=O)N1CCC[C@@H](NC(=O)c2sc3nccc4c3c2NC(=O)N4c2ccc(C)c(Cl)c2)C1 [Example 584, (R)—N-(1-Acryloylpiperidin-3-yl)-5-(3-chloro-4-methylphenyl)-4-oxo-4,5-dihydro-3H-1-thia-3,5,8-triazaacenaphthylene-2-carboxamide] | 6.6 | – | – |
| O=C(N[C@@H]1CCCNC1)c1sc2nccc3c2c1NC(=O)N3c1ccnc(-c2ccccc2)c1 [Example 585, (R)-4-Oxo-5-(2-phenylpyridin-4-yl)-N-(piperidin-3-yl)-4,5-dihydro-3H-1-thia-3,5,8-triazaacenaphthylene-2-carboxamide] | 6.5 | – | – |
| O=C(N[C@H]1CNC[C@H](O)C1)c1sc2nccc3c2c1NC(=O)N3c1ccc(Oc2ccccc2)cc1 [Example 586, N-((3R,5R)-5-Hydroxypiperidin-3-yl)-4-oxo-5-(4-phenoxyphenyl)-4,5-dihydro-3H-1-thia-3,5,8-triazaacenaphthylene-2-carboxamide] | – | – | IC50 [1]: 251 nM |
| CN1CC[C@@H](NC(=O)c2sc3nccc4c3c2NC(=O)N4c2cccc(-c3ccccc3)c2)C1 [Example 587, (R)-5-([1,1′-Biphenyl]-3-yl)-N-(1-methylpyrrolidin-3-yl)-4-oxo-4,5-dihydro-3H-1-thia-3,5,8-triazaacenaphthylene-2-carboxamide] | 6.5 | – | – |
| CO[C@H]1CNC[C@@H]1NC(=O)c1sc2nccc3c2c1NC(=O)N3c1ccc(Oc2ccccc2)cc1 [Example 588, N-((3S,4S)-4-Methoxypyrrolidin-3-yl)-4-oxo-5-(4-phenoxyphenyl)-4,5-dihydro-3H-1-thia-3,5,8-triazaacenaphthylene-2-carboxamide] | 6.4 | – | – |
| O=C(N[C@@H]1CCCN(C(=O)/C=C/CO)C1)c1sc2nccc3c2c1NC(=O)N3c1ccc(Oc2ccccc2)cc1 [Example 590, (R,E)-N-(1-(4-Hydroxybut-2-enoyl)piperidin-3-yl)-4-oxo-5-(4-phenoxyphenyl)-4,5-dihydro-3H-1-thia-3,5,8-triazaacenaphthylene-2-carboxamide] | – | 7.5 | – |
| C=CC(=O)N1CCC[C@@H](NC(=O)c2sc3nccc4c3c2NC(=O)N4c2ccnc(C3CCC3)c2)C1 [Example 591, (R)—N-(1-Acryloylpiperidin-3-yl)-5-(2-cyclobutylpyridin-4-yl)-4-oxo-4,5-dihydro-3H-1-thia-3,5,8-triazaacenaphthylene-2-carboxamide] | – | 7.5 | – |
| N#CN1CCC[C@@H](NC(=O)c2sc3nccc4c3c2NC(=O)N4c2ccc(Oc3ccccc3)cc2)C1 [Example 592, (R)—N-(1-Cyanopiperidin-3-yl)-4-oxo-5-(4-phenoxyphenyl)-4,5-dihydro-3H-1-thia-3,5,8-triazaacenaphthylene-2-carboxamide] | – | 7.4 | – |
| COCCC(=O)N1CCC[C@@H](NC(=O)c2sc3nccc4c3c2NC(=O)N4c2ccc(Oc3ccccc3)cc2)C1 [Example 593, (R)—N-(1-(3-Methoxypropanoyl)piperidin-3-yl)-4-oxo-5-(4-phenoxyphenyl)-4,5-dihydro-3H-1-thia-3,5,8-triazaacenaphthylene-2-carboxamide] | – | 7.2 | – |
| N#CN1CCC(NC(=O)c2sc3nccc4c3c2NC(=O)N4c2ccc(Oc3ccccc3)cc2)CC1 [Example 594, N-(1-Cyanopiperidin-4-yl)-4-oxo-5-(4-phenoxyphenyl)-4,5-dihydro-3H-1-thia-3,5,8-triazaacenaphthylene-2-carboxamide] | – | 7.1 | – |
| Cc1cc(Oc2ccccc2)cnc1N1C(=O)Nc2c(C(=O)N[C@@H]3CCCNC3)sc3nccc1c23 [Example 595, (R)-5-(3-Methyl-5-phenoxypyridin-2-yl)-4-oxo-N-(piperidin-3-yl)-4,5-dihydro-3H-1-thia-3,5,8-triazaacenaphthylene-2-carboxamide] | – | 7.1 | – |
| O=C(NC1CCN(C(=O)/C=C/CO)CC1)c1sc2nccc3c2c1NC(=O)N3c1ccc(Oc2ccccc2)cc1 [Example 596, (E)-N-(1-(4-Hydroxybut-2-enoyl)piperidin-4-yl)-4-oxo-5-(4-phenoxyphenyl)-4,5-dihydro-3H-1-thia-3,5,8-triazaacenaphthylene-2-carboxamide] | – | 6.9 | – |
| COCCC(=O)N1CCC(NC(=O)c2sc3nccc4c3c2NC(=O)N4c2ccc(Oc3ccccc3)cc2)CC1 [Example 597, N-(1-(3-Methoxypropanoyl)piperidin-4-yl)-4-oxo-5-(4-phenoxyphenyl)-4,5-dihydro-3H-1-thia-3,5,8-triazaacenaphthylene-2-carboxamide] | – | 6.9 | – |
| C=CC(=O)N1CCC[C@@H](NC(=O)c2sc3nccc4c3c2NC(=O)N4c2cccc(OC3CCC3)c2)C1 [Example 598] | – | 6.5 | – |
| O=C(N[C@@H]1CCNC1)c1sc2nccc3c2c1NC(=O)N3c1cccc(-c2ccccc2)c1 [Example 599, (R)-5-([1,1′-Biphenyl]-3-yl)-4-oxo-N-(pyrrolidin-3-yl)-4,5-dihydro-3H-1-thia-3,5,8-triazaacenaphthylene-2-carboxamide] | – | 6.5 | – |
